Measured values as given in patent EP0314302A2, “Herbicidal o-carbomethoxy-sulfonylureas” (E.I. DU PONT DE NEMOURS AND COMPANY, priority 1987, dated 1989).

What was measured:
Guinea Grass = experiment: Test 9 postemergence; format: in vivo, Panicum maximum; details: 16 g/ha, scale 0-100
Method: (§1) Plastic windowsill pots containing planting medium were seeded with bahiagrass, bindweed (Convolvulus spp), guinea grass (Panicum maximum), large crabgrass (Digitaria sanguinalis) and pigweed (Amaranthus spp). Individual 15-cm plastic pots contained sandbur (Cenchrus echinatus), Mikania cordata, Boston fern (Nephrolepis exalata), quackgrass (Agropyron repens), elephantgrass (Pennisetum purpureum) and sowthistle (Sonchus spp) plants.
(§2) Plants were treated postemergence with Compound I formulated in a non-phytotoxic solvent. Plants were visually rated 22 days after treatment (DAT). Injury and weed control ratings were based on the scale of 0 to 100 where 0 = no effect, 20 = minimal control and 100 = complete control.

Buckhorn plantain = experiment: Test 7 postemergence; format: in vivo, Plantago lanceolata; details: scale 0-100
Method: (§3) Individual 11.4-cm plastic pots filled with planting medium were seeded with rape, wild radish (Raphanus raphanistruna). tansy mustard (Descurainia pinnata), ball mustard (Neslia paniculata), black mustard (Brassica nigra), yellow mustard, brown mustard, lentils, safflower, flax, sunflower, peanut, vetch, alfalfa, field bean, pea, violet (Viola spp), Kochia (Kochia spp), Russian thistle (Salsola spp), Matricaria spp, groundsel (Senecio spp), shepherdspurse (Capsella bursa-pastoris), nightshade (Solanum spp), sowthistle (Sonchus spp), sugar beet, wheat, "Bonanza" barley and "Morex" barley, Kentucky bluegrass (Poa pratensis), red clover (Trifolium pratense), dandelion (Taraxacum spp) and buckhorn plantain (Plantago lanceolata).
(§4) Plants were treated postemergence with the compound formulated with a non-phytotoxic carrier. Plants were visually rated 18 days after treatment (DAT). Response ratings were based on the scale of 0 to 100 where 0 = no effect, 20 = minimal injury and 100 = complete control.

Morningglory = experiment: Test 11 windowsill flats, postemergence; format: in vivo, Ipomoea spp.; details: Postemergence 32 g/ha, 0.25% X-77 surfactant, scale 0-100
Method: (§5) Budded citrus seedlings were planted in 30-liter plastic pots which were also seeded with sandbur, guineagrass, narrowleaf panicum, common ragweed, yellow nutsedge, purple nutsedge and bindweed. Compound I was applied preemergence and postemergence to the weeds. Treatments were sprayed to simulate the trunk-to-trunk herbicide application method used in some citrus groves. The compound was also applied postemergence to weeds grown in windowsill flats. The flats were filled with planting medium and seeded with morningglory (Ipomoea spp.). purple nutsedge (Cyperus rotundus), pigweed (Amaranthus spp.), bindweed (Convolvulus spp.), narrowleaf panicum (Panicum maximum), common ragweed (Ambrosia artemisiifolia), sandbur (Cenchrus echinatus), itchgrass (Rottboellia exaltata), johnsongrass (Sorghum halepense), guineagrass (Panicum maximum), smooth crabgrass (Digitaria ischaemum), broadleaf signalgrass (Brachiaria platyphylla), bermudagrass (Cynodon dactylon), goosegrass (Eleusine indica), large crabgrass (Digitaria sanguinalis) and yellow nutsedge (Cyperus esculentus).
(§6) The compound was formulated and sprayed with 0.25% X-77 surfactant in water. Plants were visually rated 21 and 29 days after treatment and compared with appropriate controls. Injury ratings were based on the scale of 0 to 100, where 0 indicates no effect, 20 indicates minimum effect and 100 indicates complete control. […]

Large Crabgrass = experiment: Test 9 postemergence; format: in vivo, Digitaria sanguinalis; details: 16 g/ha, scale 0-100
Method: as §1, §2

Common ragweed [1] = experiment: Test 11 citrus pots, postemergence to the weeds; format: in vivo, Ambrosia artemisiifolia; details: Postemergence 32 g/ha, 0.25% X-77 surfactant, scale 0-100
Method: as §5, §6

Lalang = experiment: Test 9 postemergence; format: in vivo; details: scale 0-100
Wild radish [2] = experiment: Test 7 postemergence; format: in vivo, Raphanus raphanistruna; details: scale 0-100
Method: as §3, §4

Wild radish [3] = experiment: Test 10 postemergence safety to crops and weed control; format: in vivo, Raphanus raphanistrum; details: 16 g/ha, scale 0-100
Method: (§7) The object of these tests was to evaluate the compound of this invention for postemergence safety to crops and weed control. Seedling and budded Macedine grapes were grown in 11.4-cm pots. Flax, green foxtail (Setaria viridis), "Morex" barley, wild oats (Avena fatua), "Era" wheat, annual ryegrass (Lolium multiflorum), wild radish (Raphanus raphanistrum), rape, sunflower, chickweed (Stellaria media) and wild buckwheat (Polygonum convolvulus) were seeded in windowsill pots.
(§8) The plants were sprayed postemergence with Compound I in a non-phytotoxic solvent. Plants were visually rated 15 and 27 days after treatment (DAT). Injury and weed control ratings were based on the scale of 0 to 100 where 0 = no effect, 20 minimal control and 100 = complete control.

Sandbur = experiment: Test 11 citrus pots, preemergence to the weeds; format: in vivo, Cenchrus echinatus; details: Preemergence 32 g/ha; 0.25% X-77 surfactant; scale 0-100
Method: as §5, §6

Pigweed [4] = experiment: Test 11 windowsill flats, postemergence; format: in vivo, Amaranthus spp.; details: Postemergence 32 g/ha, 0.25% X-77 surfactant, scale 0-100
Method: as §5, §6

Bermudagrass = experiment: Test 11 windowsill flats, postemergence; format: in vivo, Cynodon dactylon; details: Postemergence 32 g/ha, 0.25% X-77 surfactant, scale 0-100
Method: as §5, §6

Matricaria = experiment: Test 7 postemergence; format: in vivo, Matricaria spp; details: scale 0-100
Method: as §3, §4

Narrowleaf panicum = experiment: Test 3 postemergence weed control; format: in vivo, P. maximum; details: 32 g/ha, scale 0-100
Method: Seeds of crabgrass (Digitaria spp), guinea grass (Panicum maximum) and narrowleaf panicum (P. maximum) were planted in 15-cm plastic pots. The weeds were treated postemergence with compound I, formulated in a non-phytotoxic solvent, when the plants had 3 or more leaves and had tillered. The degree of weed control was visually rated 17 days after compound application (DAT). Control ratings were based on a scale of 0 to 100 where 0 = no effect, 20 = minimal control and 100 = complete control.

Chickweed = experiment: Test 10 postemergence safety to crops and weed control; format: in vivo, Stellaria media; details: 16 g/ha, scale 0-100
Method: as §7, §8

Purple nutsedge = experiment: Test 11 citrus pots, preemergence to the weeds; format: in vivo, Cyperus rotundus; details: Preemergence 32 g/ha; 0.25% X-77 surfactant; scale 0-100
Method: as §5, §6

Wild oats = experiment: Test 10 postemergence safety to crops and weed control; format: in vivo, Avena fatua; details: 16 g/ha, scale 0-100
Method: as §7, §8

Lantana = experiment: Test 12 over-the-top application, postemergence; format: in vivo, Lantana camara; details: 26 days after treatment, scale 0-100
Excerpt: The object of this test was to evaluate the safety of sour lemon to the over-the-top application of Compound I and control of lantana (Lantana camara) and trumpetcreeper (Campsis radicans). Plants were sprayed postemergence with Compound I formulated in a non-phytotoxic solvent. Treated plants were visually rated 26 days after treatment and compared with appropriate controls. Injury ratings were based on the scale of 0 to 100, where 0 indicates no effect, 20 indicates minimal effect and 100 indicates complete control.

Kentucky bluegrass = experiment: Test 7 postemergence; format: in vivo, Poa pratensis; details: scale 0-100
Method: as §3, §4

Pigweed [5] = experiment: Test 9 postemergence; format: in vivo, Amaranthus spp; details: 16 g/ha, scale 0-100
Method: as §1, §2

Common ragweed [6] = experiment: Test 11 windowsill flats, postemergence; format: in vivo, Ambrosia artemisiifolia; details: Postemergence 32 g/ha, 0.25% X-77 surfactant, scale 0-100
Method: as §5, §6

COC(=O)c1cccnc1S(=O)(=O)NC(=O)Nc1nc(OC)cc(OC)n1 [Compound I, 2-[[(4,6-dimethoxypyrimidin-2-yl)aminocarbonyl]aminosulfonyl]-3-pyridinecarboxylic acid, methyl ester]
Plant Injury Rating 22 DAT (Guinea Grass): 60 | Plant Injury Rating 18 DAT (Buckhorn plantain; 16 g/ha): 30 | Plant Injury Rating 18 DAT (Buckhorn plantain; 32 g/ha): 50 | Injury ratings (Morningglory): 90 | Plant Injury Rating 22 DAT (Large Crabgrass): 60 | Injury ratings (Common ragweed [1]): 0 | Plant Injury Rating 22 DAT (Lalang; 8 g/ha): 0 | Plant Injury Rating 22 DAT (Lalang; 16 g/ha): 0 | Plant Injury Rating 22 DAT (Lalang; 32 g/ha): 20 | Plant Injury Rating 18 DAT (Wild radish [2]; 16 g/ha): 100 | Plant Injury Rating 18 DAT (Wild radish [2]; 32 g/ha): 100 | Plant Injury Rating 15 DAT (Wild radish [3]): 100 | Injury ratings (Sandbur): 100 | Injury ratings (Pigweed [4]): 100 | Injury ratings (Bermudagrass): 20 | Plant Injury Rating 18 DAT (Matricaria; 16 g/ha): 100 | Plant Injury Rating 18 DAT (Matricaria; 32 g/ha): 100 | Control Rating 17 DAT (Narrowleaf panicum): 90 | Plant Injury Rating 15 DAT (Chickweed): 100 | Injury ratings (Purple nutsedge): 100 | Plant Injury Rating 15 DAT (Wild oats): 100 | Injury ratings (Lantana; 8 g/ha): 0 | Injury ratings (Lantana; 16 g/ha): 10 | Injury ratings (Lantana; 32 g/ha): 30 | Plant Injury Rating 18 DAT (Kentucky bluegrass; 16 g/ha): 100 | Plant Injury Rating 18 DAT (Kentucky bluegrass; 32 g/ha): 100 | Plant Injury Rating 22 DAT (Pigweed [5]): 90 | Injury ratings (Common ragweed [6]): 0
